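Five concentrations, 48 hours, 96-well plates. GI50 = concentration required for 50% inhibition of growth. At the TGI there is no net growth.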
Tests used:
Assay in all cases: NCI tumour cell line growth inhibition, 48 h
[1] = test system: HCT-116 colon
[2] = test system: UACC-257 melanoma
[3] = test system: CCRF-CEM leukemia
[4] = test system: EKVX NSCLC
[5] = test system: SK-MEL-28 melanoma
[6] = test system: KM12 colon
[7] = test system: LOX IMVI melanoma
[8] = test system: SF-268 CNS

Row | SMILES | TGI [1] [µM] | TGI [2] [µM] | TGI [3] [µM] | TGI [4] [µM] | TGI [5] [µM] | TGI [6] [µM] | TGI [7] [µM] | TGI [8] [µM] | GI50 [1] [µM] | GI50 [2] [µM] | GI50 [3] [µM] | GI50 [4] [µM] | GI50 [5] [µM] | GI50 [6] [µM] | GI50 [7] [µM] | GI50 [8] [µM]
1 | O=[N+]([O-])c1cc(/C=N/NS(=O)(=O)c2ccc(F)cc2)c(O)c([N+](=O)[O-])c1 | > 100 | > 100 | > 100 | > 100 | > 100 | 50 | > 100 | > 100 | – | – | – | – | – | – | – | –
2 | Cc1cccc(N=C2NC(=O)C(CC(=O)Nc3ccc(Cl)cc3C)S2)c1 (configuration not stated) | – | > 100 | > 100 | > 100 | > 100 | > 100 | > 100 | > 100 | – | – | – | – | – | – | – | –
3 | C[C@]12CCCC(=O)C1C[C@H](C(=O)O)CC2 (some centres not stated) | > 100 | > 100 | > 100 | – | > 100 | > 100 | > 100 | > 100 | – | – | – | – | – | – | – | –
4 | CCOC(=O)C1(Cc2ccc3ccccc3c2)CCCCCN1 (configuration not stated) | – | – | – | > 100 | 88.9 | – | 39.6 | > 100 | – | – | – | – | – | – | – | –
5 | Nn1c(N=Nc2c(O)[nH]c3ccccc23)n[nH]c1=S | > 100 | > 100 | > 100 | > 100 | > 100 | > 100 | > 100 | > 100 | – | – | – | – | – | – | – | –
6 | CC12OC3CC(O1)C1(C=O)C4CCC5(C)C(c6ccc(=O)oc6)CCC5(O)C4CCC1(C3)O2 (configuration not stated) | 0.399 | 0.774 | 1.2 | – | 1.49 | 1.4 | 0.524 | 0.229 | – | – | – | – | – | – | – | –
7 | CCC[CH2][Sn]1([CH2]CCC)[O]C(=O)c2cc(C)ccc2[O]1 | 2.33 | 1.56 | 0.561 | 1.94 | 2.03 | 2.7 | 1.13 | 0.959 | 1.12 | 0.419 | 0.167 | 0.579 | 0.682 | 1.15 | 0.309 | 0.268
8 | N#CC12Cc3ccc4c(c3-c3cccc(c31)CCN2C(=O)c1ccccc1)OCO4 (configuration not stated) | > 100 | > 100 | > 100 | > 100 | > 100 | > 100 | > 100 | > 100 | – | – | – | – | – | – | – | –
9 | CC12C(=O)N(CCN)C(=O)C1C1c3ccccc3C2c2ccccc21 (configuration not stated) | > 100 | > 100 | > 100 | > 100 | > 100 | > 100 | – | > 100 | – | – | – | – | – | – | – | –
10 | Cc1cc(C)c2[s+]snc2c1 | > 100 | > 100 | > 100 | > 100 | > 100 | > 100 | > 100 | > 100 | – | – | – | – | – | – | – | –
11 | CCOc1ccc(NC(=O)CCC(=O)NN)cc1 | – | > 100 | > 100 | > 100 | > 100 | > 100 | > 100 | > 100 | – | – | – | – | – | – | – | –
12 | NNC(=S)N/N=C/C(Cl)=C(\Cl)C(=O)O | > 100 | > 100 | > 100 | > 100 | > 100 | – | > 100 | > 100 | – | – | – | – | – | – | – | –
13 | CC[O-].CC[O-].O=C([CH-]C(=O)c1ccccc1)c1ccccc1.O=C([CH-]C(=O)c1ccccc1)c1ccccc1.[Ti+4] | > 100 | > 100 | – | > 100 | > 100 | > 100 | > 100 | > 100 | > 100 | > 100 | – | > 100 | > 100 | > 100 | > 100 | > 100
14 | N#Cc1ccccc1Nc1ccccc1S | – | > 100 | 77.4 | > 100 | > 100 | > 100 | 33.6 | > 100 | – | – | – | – | – | – | – | –
15 | C[N+]1=c2c3cccc4cccc(c(=O)n2CCC1)c43 | 43.6 | 32.9 | 28.9 | 65 | 39.6 | > 100 | 29.4 | 60.2 | – | – | – | – | – | – | – | –
16 | NC(=O)CCC(NC(=O)C(F)(F)F)C(=O)O (configuration not stated) | > 100 | > 100 | > 100 | > 100 | > 100 | > 100 | > 100 | > 100 | – | – | – | – | – | – | – | –
17 | O=C1CCC(=O)C(C(=O)CCC(=O)Nc2cccc(Cl)c2)C1 (configuration not stated) | > 100 | > 100 | > 100 | > 100 | – | > 100 | > 100 | – | – | – | – | – | – | – | – | –
18 | CC(C)NC(=O)O/N=C1\CCC2[C@@H]3CC=C4C[C@@H](OC(=O)NC(C)C)CC[C@]4(C)C3CC[C@]12C (some centres not stated) | 4.94 | 2.4 | 5.03 | 3.42 | 3.26 | 3.73 | 2.27 | 3.22 | – | – | – | – | – | – | – | –
19 | CC1=NN(c2ccccc2)C(=O)C1N=Nc1ccc(Br)c(C)c1 (configuration not stated) | > 100 | > 100 | > 100 | > 100 | > 100 | > 100 | – | – | – | – | – | – | – | – | – | –
20 | CCOC(=O)N1CCC(=O)C[C@@H]1C/C=C/P1(=O)O[C@H](c2ccccc2)C(C)N1C(C)C (some centres not stated) | > 100 | > 100 | – | > 100 | > 100 | > 100 | – | > 100 | – | – | – | – | – | – | – | –

Source: PubChem BioAssay (NCI)
